Measurements taken from ChEMBL document CHEMBL3991601, “The target landscape of clinical kinase drugs” (Science, 2017).
Active and inactive are the calls of the source. For most assays here, no stated cut-off is given here; in the data, actives have a measured Kd and inactives only a lower limit.

What was measured:
[1] = molecular target: Guanine nucleotide-binding protein G(i) subunit alpha-2 (Homo sapiens, UniProt P04899)
ADP/ATP translocase 2 = molecular target: T1, ADP/ATP translocase 2 (Homo sapiens, UniProt P05141)
T1 sequence (P05141 whole entry): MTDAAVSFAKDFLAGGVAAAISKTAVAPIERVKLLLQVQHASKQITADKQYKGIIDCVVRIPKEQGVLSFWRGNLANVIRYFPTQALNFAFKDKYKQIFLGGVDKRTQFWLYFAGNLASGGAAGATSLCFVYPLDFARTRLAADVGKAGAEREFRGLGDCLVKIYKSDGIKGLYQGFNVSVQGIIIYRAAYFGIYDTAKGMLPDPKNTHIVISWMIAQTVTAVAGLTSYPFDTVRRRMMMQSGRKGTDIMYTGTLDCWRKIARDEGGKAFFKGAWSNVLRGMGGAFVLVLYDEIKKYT

[2] = molecular target: Dual specificity mitogen-activated protein kinase kinase 1 (Homo sapiens, UniProt Q02750)
[3] = molecular target: T2, AarF domain-containing protein kinase 1 (Homo sapiens, UniProt Q86TW2)
T2 sequence (Q86TW2 whole entry): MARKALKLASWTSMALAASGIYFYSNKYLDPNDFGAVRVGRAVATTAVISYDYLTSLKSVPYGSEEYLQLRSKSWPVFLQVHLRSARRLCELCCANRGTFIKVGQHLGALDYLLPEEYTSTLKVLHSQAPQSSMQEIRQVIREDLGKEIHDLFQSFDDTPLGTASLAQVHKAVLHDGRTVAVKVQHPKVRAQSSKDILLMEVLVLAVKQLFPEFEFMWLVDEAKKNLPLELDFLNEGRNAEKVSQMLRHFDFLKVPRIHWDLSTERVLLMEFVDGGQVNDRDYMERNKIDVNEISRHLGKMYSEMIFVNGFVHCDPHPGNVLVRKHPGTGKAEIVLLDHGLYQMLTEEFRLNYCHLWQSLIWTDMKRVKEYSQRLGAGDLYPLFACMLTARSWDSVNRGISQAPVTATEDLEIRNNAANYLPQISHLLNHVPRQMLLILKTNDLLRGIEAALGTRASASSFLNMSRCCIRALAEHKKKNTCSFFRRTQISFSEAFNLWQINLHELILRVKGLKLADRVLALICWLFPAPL

[4] = molecular target: Macrophage-stimulating protein receptor (Homo sapiens, UniProt Q04912)
[5] = molecular target: T3, Mitogen-activated protein kinase kinase kinase kinase 2 (Homo sapiens, UniProt Q12851)
T3 sequence (Q12851 whole entry): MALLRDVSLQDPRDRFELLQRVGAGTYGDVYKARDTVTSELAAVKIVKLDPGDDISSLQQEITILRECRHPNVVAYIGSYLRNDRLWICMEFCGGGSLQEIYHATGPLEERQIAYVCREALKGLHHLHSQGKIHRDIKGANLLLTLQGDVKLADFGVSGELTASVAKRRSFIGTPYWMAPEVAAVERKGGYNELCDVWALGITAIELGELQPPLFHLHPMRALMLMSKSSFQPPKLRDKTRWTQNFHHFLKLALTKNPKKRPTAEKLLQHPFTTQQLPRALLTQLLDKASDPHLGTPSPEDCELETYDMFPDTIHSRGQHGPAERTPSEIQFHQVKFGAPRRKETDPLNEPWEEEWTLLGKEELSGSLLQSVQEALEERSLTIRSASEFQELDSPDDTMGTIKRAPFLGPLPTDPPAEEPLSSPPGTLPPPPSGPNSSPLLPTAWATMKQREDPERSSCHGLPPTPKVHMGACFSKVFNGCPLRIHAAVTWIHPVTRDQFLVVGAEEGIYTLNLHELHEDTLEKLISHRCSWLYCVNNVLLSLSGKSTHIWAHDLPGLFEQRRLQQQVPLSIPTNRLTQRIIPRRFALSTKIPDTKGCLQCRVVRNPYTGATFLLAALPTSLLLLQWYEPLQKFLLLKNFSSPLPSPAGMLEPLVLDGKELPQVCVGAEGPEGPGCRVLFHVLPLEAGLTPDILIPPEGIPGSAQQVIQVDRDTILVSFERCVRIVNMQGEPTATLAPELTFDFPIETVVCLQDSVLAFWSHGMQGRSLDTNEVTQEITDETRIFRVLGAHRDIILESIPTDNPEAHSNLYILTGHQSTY

[6] = molecular target: Adenylate kinase 2, mitochondrial (Homo sapiens, UniProt P54819)
[7] = molecular target: T4, Ras-related protein Rab-27A (Homo sapiens, UniProt P51159)
T4 sequence (P51159 whole entry): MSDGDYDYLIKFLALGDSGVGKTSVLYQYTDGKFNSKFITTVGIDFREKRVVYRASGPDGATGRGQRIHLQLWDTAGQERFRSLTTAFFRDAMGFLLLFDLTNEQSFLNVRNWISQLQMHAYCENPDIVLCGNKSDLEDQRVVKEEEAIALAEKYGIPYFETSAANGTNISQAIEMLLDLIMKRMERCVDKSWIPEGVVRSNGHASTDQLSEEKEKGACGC

[8] = molecular target: Mitogen-activated protein kinase kinase kinase kinase 4 (Homo sapiens, UniProt O95819)
[9] = molecular target: Putative heat shock protein HSP 90-beta 2 (Homo sapiens, UniProt Q58FF8)
Activin receptor type-1 = molecular target: T5, Activin receptor type-1 (Homo sapiens, UniProt Q04771)
T5 sequence (Q04771 whole entry): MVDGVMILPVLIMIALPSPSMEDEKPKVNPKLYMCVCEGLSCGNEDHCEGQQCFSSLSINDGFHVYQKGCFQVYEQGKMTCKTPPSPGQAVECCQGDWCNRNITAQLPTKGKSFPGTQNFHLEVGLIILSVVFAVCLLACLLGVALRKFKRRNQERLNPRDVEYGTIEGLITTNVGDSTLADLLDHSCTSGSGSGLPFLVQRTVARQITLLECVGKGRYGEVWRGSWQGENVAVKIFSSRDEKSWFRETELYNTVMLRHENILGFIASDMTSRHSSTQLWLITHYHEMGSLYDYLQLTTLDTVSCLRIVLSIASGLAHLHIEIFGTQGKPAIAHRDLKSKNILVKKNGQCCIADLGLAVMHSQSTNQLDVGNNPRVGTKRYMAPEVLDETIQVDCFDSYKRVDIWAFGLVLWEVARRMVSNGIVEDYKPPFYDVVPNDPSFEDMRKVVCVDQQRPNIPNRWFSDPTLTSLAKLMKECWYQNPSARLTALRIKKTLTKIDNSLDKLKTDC

Sequence of Mitogen-activated protein kinase kinase kinase kinase 4 (O95819 whole entry): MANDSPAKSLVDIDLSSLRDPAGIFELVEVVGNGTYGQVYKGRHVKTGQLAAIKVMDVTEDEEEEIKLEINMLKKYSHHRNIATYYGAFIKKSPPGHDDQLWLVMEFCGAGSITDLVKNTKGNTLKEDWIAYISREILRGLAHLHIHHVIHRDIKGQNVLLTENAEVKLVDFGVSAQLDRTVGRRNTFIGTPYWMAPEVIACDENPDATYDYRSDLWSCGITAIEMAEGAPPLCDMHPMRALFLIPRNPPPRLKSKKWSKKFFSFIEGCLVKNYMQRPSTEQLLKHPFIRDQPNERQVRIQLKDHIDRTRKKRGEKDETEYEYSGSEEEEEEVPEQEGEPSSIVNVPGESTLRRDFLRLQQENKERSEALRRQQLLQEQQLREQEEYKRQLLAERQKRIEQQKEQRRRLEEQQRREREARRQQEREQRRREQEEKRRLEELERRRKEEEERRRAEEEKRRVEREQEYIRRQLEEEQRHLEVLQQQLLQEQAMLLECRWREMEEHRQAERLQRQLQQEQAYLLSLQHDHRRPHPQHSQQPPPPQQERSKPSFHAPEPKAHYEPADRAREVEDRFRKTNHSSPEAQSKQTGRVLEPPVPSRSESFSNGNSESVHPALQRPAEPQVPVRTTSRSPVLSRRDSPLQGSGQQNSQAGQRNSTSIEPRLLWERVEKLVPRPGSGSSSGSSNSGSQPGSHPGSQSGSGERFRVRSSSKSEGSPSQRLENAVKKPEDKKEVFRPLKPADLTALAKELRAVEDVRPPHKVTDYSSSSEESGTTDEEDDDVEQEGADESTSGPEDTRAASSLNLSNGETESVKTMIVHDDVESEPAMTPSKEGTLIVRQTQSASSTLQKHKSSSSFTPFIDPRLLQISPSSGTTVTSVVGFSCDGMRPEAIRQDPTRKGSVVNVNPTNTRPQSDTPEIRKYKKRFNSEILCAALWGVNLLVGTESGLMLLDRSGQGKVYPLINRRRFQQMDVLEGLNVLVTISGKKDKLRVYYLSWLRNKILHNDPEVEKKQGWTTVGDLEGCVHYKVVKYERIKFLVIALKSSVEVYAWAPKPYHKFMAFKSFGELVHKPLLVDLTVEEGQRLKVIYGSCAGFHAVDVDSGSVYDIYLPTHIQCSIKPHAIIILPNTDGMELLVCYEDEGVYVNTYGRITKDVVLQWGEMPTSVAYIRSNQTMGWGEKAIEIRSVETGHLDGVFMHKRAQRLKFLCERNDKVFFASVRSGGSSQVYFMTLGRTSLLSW
Sequence of Guanine nucleotide-binding protein G(i) subunit alpha-2 (P04899 whole entry): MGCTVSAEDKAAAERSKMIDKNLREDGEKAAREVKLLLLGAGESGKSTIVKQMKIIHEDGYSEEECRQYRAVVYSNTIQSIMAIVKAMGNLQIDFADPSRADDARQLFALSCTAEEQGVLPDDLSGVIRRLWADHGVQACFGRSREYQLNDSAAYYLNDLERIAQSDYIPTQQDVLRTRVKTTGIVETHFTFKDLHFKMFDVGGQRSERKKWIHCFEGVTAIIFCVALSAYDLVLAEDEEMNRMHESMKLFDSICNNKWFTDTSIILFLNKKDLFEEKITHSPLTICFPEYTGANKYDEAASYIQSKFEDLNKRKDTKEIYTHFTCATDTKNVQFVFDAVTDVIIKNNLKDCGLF
Sequence of Putative heat shock protein HSP 90-beta 2 (Q58FF8 whole entry): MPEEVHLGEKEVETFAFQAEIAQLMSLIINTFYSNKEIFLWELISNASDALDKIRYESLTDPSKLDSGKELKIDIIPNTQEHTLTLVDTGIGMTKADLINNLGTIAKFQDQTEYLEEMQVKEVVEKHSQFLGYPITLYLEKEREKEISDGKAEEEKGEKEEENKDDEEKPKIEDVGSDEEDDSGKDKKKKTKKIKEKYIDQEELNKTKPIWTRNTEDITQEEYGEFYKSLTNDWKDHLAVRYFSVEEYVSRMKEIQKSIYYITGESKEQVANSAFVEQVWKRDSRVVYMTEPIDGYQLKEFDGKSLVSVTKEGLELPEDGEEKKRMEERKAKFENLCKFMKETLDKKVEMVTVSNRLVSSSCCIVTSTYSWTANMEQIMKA
Sequence of Macrophage-stimulating protein receptor (Q04912 25-304 limits assumed): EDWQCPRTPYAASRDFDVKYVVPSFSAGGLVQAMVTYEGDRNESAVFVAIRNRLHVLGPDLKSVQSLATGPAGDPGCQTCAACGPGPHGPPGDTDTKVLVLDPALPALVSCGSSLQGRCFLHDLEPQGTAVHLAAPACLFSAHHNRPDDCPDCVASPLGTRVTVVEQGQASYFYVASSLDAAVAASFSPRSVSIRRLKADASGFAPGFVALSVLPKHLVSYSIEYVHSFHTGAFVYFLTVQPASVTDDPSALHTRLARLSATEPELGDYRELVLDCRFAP
Sequence of Macrophage-stimulating protein receptor (Q04912 310-1400 limits assumed): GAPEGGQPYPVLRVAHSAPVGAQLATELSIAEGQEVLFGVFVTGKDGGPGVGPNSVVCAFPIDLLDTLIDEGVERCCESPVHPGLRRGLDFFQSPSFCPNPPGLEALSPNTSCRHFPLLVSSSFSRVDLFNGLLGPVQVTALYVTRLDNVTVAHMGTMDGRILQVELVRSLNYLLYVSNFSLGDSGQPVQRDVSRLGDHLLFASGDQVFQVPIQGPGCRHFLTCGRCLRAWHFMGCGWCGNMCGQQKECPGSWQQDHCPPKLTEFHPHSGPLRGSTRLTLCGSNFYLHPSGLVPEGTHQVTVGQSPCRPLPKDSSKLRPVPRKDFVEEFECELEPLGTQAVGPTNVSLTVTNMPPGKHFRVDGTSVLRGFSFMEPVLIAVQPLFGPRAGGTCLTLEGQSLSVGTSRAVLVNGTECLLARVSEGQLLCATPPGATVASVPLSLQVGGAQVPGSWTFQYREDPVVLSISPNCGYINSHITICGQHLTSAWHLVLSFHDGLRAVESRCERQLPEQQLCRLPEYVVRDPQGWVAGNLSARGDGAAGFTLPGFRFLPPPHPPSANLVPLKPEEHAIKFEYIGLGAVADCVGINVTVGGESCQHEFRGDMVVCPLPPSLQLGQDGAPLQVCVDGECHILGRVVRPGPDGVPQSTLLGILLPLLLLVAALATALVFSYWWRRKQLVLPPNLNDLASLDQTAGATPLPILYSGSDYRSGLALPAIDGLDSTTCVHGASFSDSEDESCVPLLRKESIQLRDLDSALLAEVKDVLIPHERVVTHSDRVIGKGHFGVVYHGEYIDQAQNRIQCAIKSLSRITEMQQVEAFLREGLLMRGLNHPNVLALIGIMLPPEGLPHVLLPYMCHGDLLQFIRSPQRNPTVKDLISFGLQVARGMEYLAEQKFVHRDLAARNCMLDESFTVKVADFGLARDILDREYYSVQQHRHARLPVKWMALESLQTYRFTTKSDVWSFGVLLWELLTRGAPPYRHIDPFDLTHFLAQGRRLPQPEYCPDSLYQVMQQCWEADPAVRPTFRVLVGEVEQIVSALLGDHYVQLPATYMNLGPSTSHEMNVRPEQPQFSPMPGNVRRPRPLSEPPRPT
Sequence of Dual specificity mitogen-activated protein kinase kinase 1 (Q02750 whole entry, the tested form may be a part): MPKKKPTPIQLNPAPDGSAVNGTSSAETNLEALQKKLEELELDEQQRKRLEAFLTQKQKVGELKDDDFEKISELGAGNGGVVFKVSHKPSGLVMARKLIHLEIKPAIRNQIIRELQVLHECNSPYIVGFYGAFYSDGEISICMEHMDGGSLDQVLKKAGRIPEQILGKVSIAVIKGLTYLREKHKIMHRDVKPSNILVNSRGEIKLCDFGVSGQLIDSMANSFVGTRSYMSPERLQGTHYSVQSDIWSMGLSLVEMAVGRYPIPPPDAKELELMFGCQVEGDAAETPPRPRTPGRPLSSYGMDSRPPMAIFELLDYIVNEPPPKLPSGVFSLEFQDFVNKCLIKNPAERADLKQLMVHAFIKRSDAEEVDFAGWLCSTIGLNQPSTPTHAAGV

Kd [1]	Kd (ADP/ATP translocase 2)	Kd [2]	Kd [3]	Kd [4]	Kd [5]	Kd [6]	Kd [7]	Kd [8]	Kd [9]	Kd (Activin receptor type-1)	Compound
> 30 µM (inactive)	> 30 µM (inactive)	> 30 µM (inactive)	> 30 µM (inactive)	> 30 µM (inactive)	0.122 µM (active)	> 30 µM (inactive)	> 30 µM (inactive)	> 30 µM (inactive)	> 30 µM (inactive)	> 30 µM (inactive)	C[C@@H](Oc1cc(C(=O)Nc2ccc(C(=O)N3CCN(C)CC3)cc2)nnc1N)c1c(Cl)ccc(F)c1Cl
> 30 µM (inactive)	> 30 µM (inactive)	> 30 µM (inactive)	> 30 µM (inactive)	> 30 µM (inactive)	> 30 µM (inactive)	> 30 µM (inactive)	> 30 µM (inactive)	> 30 µM (inactive)	> 30 µM (inactive)	> 30 µM (inactive)	C[C@H]1CNCCCN1S(=O)(=O)c1cccc2cncc(F)c12
> 30 µM (inactive)	> 30 µM (inactive)	3.33 µM (active)	> 30 µM (inactive)	> 30 µM (inactive)	4.58 µM (active)	> 30 µM (inactive)	> 30 µM (inactive)	> 30 µM (inactive)	> 30 µM (inactive)	1.2 µM (active)	Nc1ncnc2c1c(-c1cccc(OCc3ccccc3)c1)cn2[C@H]1C[C@@H](CN2CCC2)C1 [AEW-541]
> 30 µM (inactive)	> 30 µM (inactive)	> 30 µM (inactive)	> 30 µM (inactive)	> 30 µM (inactive)	> 30 µM (inactive)	> 30 µM (inactive)		> 30 µM (inactive)	> 30 µM (inactive)	> 30 µM (inactive)	Cc1nc(NC(=O)N2CCC[C@H]2C(N)=O)sc1-c1ccnc(C(C)(C)C(F)(F)F)c1 [ALPELISIB]
> 30 µM (inactive)	> 30 µM (inactive)	3.31 µM (active)	> 30 µM (inactive)	> 30 µM (inactive)	0.186 µM (active)	> 30 µM (inactive)	> 30 µM (inactive)	> 30 µM (inactive)	> 30 µM (inactive)	> 30 µM (inactive)	Cc1csc(-c2nnc(Nc3ccc(Oc4ncccc4-c4ccnc(N)n4)cc3)c3ccccc23)c1 [AMG-900]
> 30 µM (inactive)	> 30 µM (inactive)	> 30 µM (inactive)	> 30 µM (inactive)	> 30 µM (inactive)	> 30 µM (inactive)	> 30 µM (inactive)	> 30 µM (inactive)	> 30 µM (inactive)	> 30 µM (inactive)	> 30 µM (inactive)	C=CC(=O)Nc1cc2c(Nc3ccc(F)c(Cl)c3)ncnc2cc1C#CC(C)(C)N1CCN(C)CC1 [AV-412 FREE BASE]
> 30 µM (inactive)	> 30 µM (inactive)	0.045 µM (active)	> 30 µM (inactive)	> 30 µM (inactive)	> 30 µM (inactive)	> 30 µM (inactive)	> 30 µM (inactive)	> 30 µM (inactive)	> 30 µM (inactive)	> 30 µM (inactive)	Cn1cnc2c(F)c(Nc3ccc(Br)cc3F)c(C(=O)NOCCO)cc21 [BINIMETINIB]
> 30 µM (inactive)	> 30 µM (inactive)	> 30 µM (inactive)	> 30 µM (inactive)	> 30 µM (inactive)	2.82 µM (active)	> 30 µM (inactive)	> 30 µM (inactive)	> 30 µM (inactive)	> 30 µM (inactive)	> 30 µM (inactive)	COc1cc2ncnc(Oc3cccc(NC(=O)Nc4cc(C(C)(C)C(F)(F)F)on4)c3)c2cc1OC [CEP-32496]
> 30 µM (inactive)	> 30 µM (inactive)	> 30 µM (inactive)	> 30 µM (inactive)	> 30 µM (inactive)	> 30 µM (inactive)	> 30 µM (inactive)	> 30 µM (inactive)	> 30 µM (inactive)		> 30 µM (inactive)	CO[C@H]1C[C@@H]2CC[C@@H](C)[C@@](O)(O2)C(=O)C(=O)N2CCCC[C@H]2C(=O)O[C@H]([C@H](C)C[C@@H]2CC[C@@H](OP(C)(C)=O)[C@H](OC)C2)CC(=O)[C@H](C)/C=C(\C)[C@@H](O)[C@@H](OC)C(=O)[C@H](C)C[C@H](C)/C=C/C=C/C=C/1C [RIDAFOROLIMUS]

Compound	Kd [1]	Kd (ADP/ATP translocase 2)	Kd [2]	Kd [3]	Kd [4]	Kd [5]	Kd [6]	Kd [7]	Kd [8]	Kd [9]	Kd (Activin receptor type-1)
COc1cc([C@@H]2c3cc4c(cc3[C@H](O)[C@H]3COC(=O)[C@@H]23)OCO4)cc(OC)c1OC [AXL-1717]	> 30 µM (inactive)	> 30 µM (inactive)	> 30 µM (inactive)	> 30 µM (inactive)	> 30 µM (inactive)	> 30 µM (inactive)	> 30 µM (inactive)	> 30 µM (inactive)	> 30 µM (inactive)	> 30 µM (inactive)	> 30 µM (inactive)
NC(=O)Nc1cc(-c2cccc(F)c2)sc1C(=O)N[C@H]1CCCNC1 [AZD-7762]	> 30 µM (inactive)	> 30 µM (inactive)	2.04 µM (active)	> 30 µM (inactive)	> 30 µM (inactive)	0.05 µM (active)	> 30 µM (inactive)	> 30 µM (inactive)	0.035 µM (active)	> 30 µM (inactive)	> 30 µM (inactive)
CC(C)(C)c1nc(-c2cccc(NS(=O)(=O)c3c(F)cccc3F)c2F)c(-c2ccnc(N)n2)s1 [DABRAFENIB]	> 30 µM (inactive)	> 30 µM (inactive)	> 30 µM (inactive)	> 30 µM (inactive)	> 30 µM (inactive)	> 30 µM (inactive)	> 30 µM (inactive)	> 30 µM (inactive)	> 30 µM (inactive)	> 30 µM (inactive)	
CCOc1cc2ncc(C#N)c(Nc3ccc(F)c(Cl)c3)c2cc1NC(=O)/C=C/CN(C)C [PELITINIB]	> 30 µM (inactive)	> 30 µM (inactive)	8.77 µM (active)	> 30 µM (inactive)	> 30 µM (inactive)	2.28 µM (active)	> 30 µM (inactive)	> 30 µM (inactive)	> 30 µM (inactive)		> 30 µM (inactive)
